In US20190322676A1, “CERAMIDE GALACTOSYLTRANSFERASE INHIBITORS FOR THE TREATMENT OF DISEASE” (BioMarin Pharmaceutical Inc., priority 2016, published 2019):

Target: T1, human CGT (ceramide galactosyltransferase), CHO/CGT lysate (Homo sapiens, UniProt Q16880)
T1 construct: Full-length human CGT cDNA was cloned into the BamH1/Xho1 site of pcDNA3.1 (+); expressed in transfected cells; host or cells: Chinese hamster ovary (CHO) cells; lysate prepared with M-PER
T1 sequence (Q16880 21-541): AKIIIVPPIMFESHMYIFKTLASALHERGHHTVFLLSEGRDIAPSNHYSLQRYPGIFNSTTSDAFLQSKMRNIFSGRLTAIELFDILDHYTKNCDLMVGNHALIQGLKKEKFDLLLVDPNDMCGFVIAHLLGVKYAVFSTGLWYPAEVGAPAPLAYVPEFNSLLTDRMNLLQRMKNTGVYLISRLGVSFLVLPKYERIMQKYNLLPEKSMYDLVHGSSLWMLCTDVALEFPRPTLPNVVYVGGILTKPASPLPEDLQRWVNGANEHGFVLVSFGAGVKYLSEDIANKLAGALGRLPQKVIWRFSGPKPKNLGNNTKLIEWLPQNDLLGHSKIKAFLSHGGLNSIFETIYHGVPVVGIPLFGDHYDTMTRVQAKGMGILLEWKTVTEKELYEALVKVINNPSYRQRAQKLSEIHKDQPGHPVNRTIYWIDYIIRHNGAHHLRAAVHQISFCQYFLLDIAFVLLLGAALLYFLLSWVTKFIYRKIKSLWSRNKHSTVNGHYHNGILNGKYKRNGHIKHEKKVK
Test: CGT enzyme assay, RapidFire/MS/MS readout (Table 1 ranges with one asterisk *)
Type: biochemical
Conditions: RapidFire method (range with one asterisk *)
In short: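 IC50s come from variable-slope dose-response fits of internal-standard-normalized C6-NBD-dihydro-galactosylceramide, measured by RapidFire/MS/MS (ESI negative). Reactions: 1 h, 37 °C, human CGT-expressing CHO lysate (4 μg), 0.001–50 μM compound, 10 μM NBD-dihydro-ceramide, 17.5 μM UDP-galactose, 0.5% DMSO, pH 7.2; 0.01% Tween 80 added for ** values.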

Question: Which IC50 does the source give for `CN([C@H](C(=O)N1C2CCC1CC(N)C2)C(F)(F)c1ccc(OCCN2CCOCC2)cc1)S(=O)(=O)c1ccc2cc(OC3CCCC3)ccc2c1` (stereo partly drawn) [Compound 115-1, N-((2R)-3-(3-amino-8-azabicyclo[3.2.1]octan-8-yl)-1,1-difluoro-1-(4-(2-morpholinoethoxy)phenyl)-3-oxopropan-2-yl)-6-(cyclopentyloxy)-N-methylnaphthalene-2-sulfonamide] here?
Answer: Its IC50 is 1 to 10 µM.

Question: With `CN([C@@H](C(=O)N1C2CCC1CC(N)C2)C(F)(F)c1ccc(OCCN2CCOCC2)cc1)S(=O)(=O)c1ccc2cc(OC3CCCC3)ccc2c1` (stereo partly drawn) [Compound 115-2, N-((2S)-3-(3-amino-8-azabicyclo[3.2.1]octan-8-yl)-1,1-difluoro-1-(4-(2-morpholinoethoxy)phenyl)-3-oxopropan-2-yl)-6-(cyclopentyloxy)-N-methylnaphthalene-2-sulfonamide] as the molecule, how does the IC50 read?
Answer: The IC50 was 10 to 30 µM.

Question: For `CN([C@H](C(=O)N1C2CCC1CC(N)C2)C(F)(F)c1ccc(OCCN2CCCCC2)cc1)S(=O)(=O)c1ccc2cc(OC3CCCC3)ccc2c1` (stereo partly drawn) [Compound 116-1, N-((2R)-3-(3-amino-8-azabicyclo[3.2.1]octan-8-yl)-1,1-difluoro-3-oxo-1-(4-(2-(piperidin-1-yl)ethoxy)phenyl)propan-2-yl)-6-(cyclopentyloxy)-N-methylnaphthalene-2-sulfonamide], which IC50 is on record?
Answer: Its IC50 is 30 to 100 µM.

Question: For `CN([C@@H](C(=O)N1C2CCC1CC(N)C2)C(F)(F)c1ccc(OCCN2CCCCC2)cc1)S(=O)(=O)c1ccc2cc(OC3CCCC3)ccc2c1` (stereo partly drawn) [Compound 116-2, N-((2S)-3-(3-amino-8-azabicyclo[3.2.1]octan-8-yl)-1,1-difluoro-3-oxo-1-(4-(2-(piperidin-1-yl)ethoxy)phenyl)propan-2-yl)-6-(cyclopentyloxy)-N-methylnaphthalene-2-sulfonamide], which IC50 is on record?
Answer: The IC50 was 30 to 100 µM.

Question: With `NC1CCN(C(=O)[C@@H](NS(=O)(=O)c2ccc(OCC3CCCCC3)cc2)C(F)(F)c2ccc(-c3ccc(Cl)s3)cc2)CC1` [Compound 117-1, (R)—N-(3-(4-aminopiperidin-1-yl)-1-(4-(5-chlorothiophen-2-yl)phenyl)-1,1-difluoro-3-oxopropan-2-yl)-4-(cyclohexylmethoxy)benzenesulfonamide] as the molecule, how does the IC50 read?
Answer: Its IC50 is 1 to 10 µM.

Question: For `NC1CCN(C(=O)[C@H](NS(=O)(=O)c2ccc(OCC3CCCCC3)cc2)C(F)(F)c2ccc(-c3ccc(Cl)s3)cc2)CC1` [Compound 117-2, (S)—N-(3-(4-aminopiperidin-1-yl)-1-(4-(5-chlorothiophen-2-yl)phenyl)-1,1-difluoro-3-oxopropan-2-yl)-4-(cyclohexylmethoxy) benzenesulfonamide], which IC50 is on record?
Answer: The IC50 was 10 to 30 µM.

Question: Which IC50 does the source give for `CCCCOc1cc(C(F)(F)[C@H](NS(=O)(=O)c2ccc3cc(OC4CCCC4)ccc3c2)C(=O)N2C3CCC2CC(N)C3)ccc1Cl` (stereo partly drawn) [Compound 118-1, N-((2R)-3-(3-amino-8-azabicyclo[3.2.1]octan-8-yl)-1-(3-butoxy-4-chlorophenyl)-1,1-difluoro-3-oxopropan-2-yl)-6-(cyclopentyloxy)naphthalene-2-sulfonamide] here?
Answer: Its IC50 is under 1 µM.

Question: Which IC50 does the source give for `CCCCOc1cc(C(F)(F)[C@@H](NS(=O)(=O)c2ccc3cc(OC4CCCC4)ccc3c2)C(=O)N2C3CCC2CC(N)C3)ccc1Cl` (stereo partly drawn) [Compound 118-2, N-((2S)-3-(3-amino-8-azabicyclo[3.2.1]octan-8-yl)-1-(3-butoxy-4-chlorophenyl)-1,1-difluoro-3-oxopropan-2-yl)-6-(cyclopentyloxy) naphthalene-2-sulfonamide] here?
Answer: Its IC50 is 1 to 10 µM.

Question: With `CCCCOc1cc(C(F)(F)[C@H](NS(=O)(=O)c2ccc(OCC3CCCCC3)cc2)C(=O)N2C3CCC2CC(N)C3)ccc1Cl` (stereo partly drawn) [Compound 120-1, N-((2R)-3-(3-amino-8-azabicyclo[3.2.1]octan-8-yl)-1-(3-butoxy-4-chlorophenyl)-1,1-difluoro-3-oxopropan-2-yl)-4-(cyclohexylmethoxy) benzenesulfonamide] as the molecule, how does the IC50 read?
Answer: Its IC50 is under 1 µM.

Question: `CCCCOc1cc(C(F)(F)[C@@H](NS(=O)(=O)c2ccc(OCC3CCCCC3)cc2)C(=O)N2C3CCC2CC(N)C3)ccc1Cl` (stereo partly drawn) [Compound 120-2, N-((2S)-3-(3-amino-8-azabicyclo[3.2.1]octan-8-yl)-1-(3-butoxy-4-chlorophenyl)-1,1-difluoro-3-oxopropan-2-yl)-4-(cyclohexylmethoxy)benzenesulfonamide] was tested. Which IC50 did it give?
Answer: The IC50 was 1 to 10 µM.

Question: `NC1CC2CCC(C1)N2C(=O)[C@@H](NS(=O)(=O)c1ccc2cc(OC3CCCC3)ccc2c1)C(F)(F)c1ccc(Oc2ccc(Cl)cc2)cc1` (stereo partly drawn) [Compound 121-1, N-((2R)-3-(3-amino-8-azabicyclo[3.2.1]octan-8-yl)-1-(4-(4-chlorophenoxy)phenyl)-1,1-difluoro-3-oxopropan-2-yl)-6-(cyclopentyloxy) naphthalene-2-sulfonamide] was tested. Which IC50 did it give?
Answer: Its IC50 is under 1 µM.

Question: How did the IC50 turn out when `NC1CC2CCC(C1)N2C(=O)[C@H](NS(=O)(=O)c1ccc2cc(OC3CCCC3)ccc2c1)C(F)(F)c1ccc(Oc2ccc(Cl)cc2)cc1` (stereo partly drawn) [Compound 121-2, N-((2S)-3-(3-amino-8-azabicyclo[3.2.1]octan-8-yl)-1-(4-(4-chlorophenoxy)phenyl)-1,1-difluoro-3-oxopropan-2-yl)-6-(cyclopentyloxy)naphthalene-2-sulfonamide] was run?
Answer: Its IC50 is 1 to 10 µM.

Question: For `N[C@@H]1CCCN(C(=O)[C@@H](NS(=O)(=O)c2ccc3cc(OC4CCCC4)ccc3c2)C(F)(F)c2ccc(Br)cc2)C1` [Compound 122-1, N—((R)-3-((R)-3-aminopiperidin-1-yl)-1-(4-bromophenyl)-1,1-difluoro-3-oxopropan-2-yl)-6-(cyclopentyloxy)naphthalene-2-sulfonamide], which IC50 is on record?
Answer: The IC50 was 1 to 10 µM.

Question: How did the IC50 turn out when `N[C@@H]1CCCN(C(=O)[C@H](NS(=O)(=O)c2ccc3cc(OC4CCCC4)ccc3c2)C(F)(F)c2ccc(Br)cc2)C1` [Compound 122-2, N—((S)-3-((R)-3-aminopiperidin-1-yl)-1-(4-bromophenyl)-1,1-difluoro-3-oxopropan-2-yl)-6-(cyclopentyloxy)naphthalene-2-sulfonamide] was run?
Answer: The IC50 was 30 to 100 µM.

Question: `COc1cc(C(F)(F)[C@H](NS(=O)(=O)c2ccc3cc(OC4CCCC4)ccc3c2)C(=O)N2CCC(N)CC2)ccc1Cl` [Compound 123-1, (R)—N-(3-(4-aminopiperidin-1-yl)-1-(4-chloro-3-methoxyphenyl)-1,1-difluoro-3-oxopropan-2-yl)-6-(cyclopentyloxy)naphthalene-2-sulfonamide] was tested. Which IC50 did it give?
Answer: The IC50 was under 1 µM.

Question: For `COc1cc(C(F)(F)[C@@H](NS(=O)(=O)c2ccc3cc(OC4CCCC4)ccc3c2)C(=O)N2CCC(N)CC2)ccc1Cl` [Compound 123-2, (S)—N-(3-(4-aminopiperidin-1-yl)-1-(4-chloro-3-methoxyphenyl)-1,1-difluoro-3-oxopropan-2-yl)-6-(cyclopentyloxy)naphthalene-2-sulfonamide], which IC50 is on record?
Answer: The IC50 was 1 to 10 µM.

Question: With `COc1cc(C(F)(F)[C@H](NS(=O)(=O)c2ccc3cc(OC4CCCC4)ccc3c2)C(=O)N2C3CCC2CC(N)C3)ccc1Cl` (stereo partly drawn) [Compound 124-1, N-((2R)-3-(3-amino-8-azabicyclo[3.2.1]octan-8-yl)-1-(4-chloro-3-methoxyphenyl)-1,1-difluoro-3-oxopropan-2-yl)-6-(cyclopentyloxy)naphthalene-2-sulfonamide] as the molecule, how does the IC50 read?
Answer: The IC50 was under 1 µM.

Question: How did the IC50 turn out when `COc1cc(C(F)(F)[C@H](NS(=O)(=O)c2ccc(OCC3CCCCC3)cc2)C(=O)N2C3CCC2CC(N)C3)ccc1Cl` (stereo partly drawn) [Compound 125-1, N-((2R)-3-(3-amino-8-azabicyclo[3.2.1]octan-8-yl)-1-(4-chloro-3-methoxyphenyl)-1,1-difluoro-3-oxopropan-2-yl)-4-(cyclohexylmethoxy) benzenesulfonamide] was run?
Answer: Its IC50 is under 1 µM.

Question: With `COc1cc(C(F)(F)[C@@H](NS(=O)(=O)c2ccc(OCC3CCCCC3)cc2)C(=O)N2C3CCC2CC(N)C3)ccc1Cl` (stereo partly drawn) [Compound 125-2, N-((2S)-3-(3-amino-8-azabicyclo[3.2.1]octan-8-yl)-1-(4-chloro-3-methoxyphenyl)-1,1-difluoro-3-oxopropan-2-yl)-4-(cyclohexylmethoxy)benzenesulfonamide] as the molecule, how does the IC50 read?
Answer: The IC50 was 10 to 30 µM.

Question: For `CCCCOc1cc(C(F)(F)[C@H](NS(=O)(=O)c2ccc3cc(OC4CCCC4)ccc3c2)C(=O)N2CCC(N)CC2)ccc1Cl` [Compound 126-1, (R)—N-(3-(4-aminopiperidin-1-yl)-1-(3-butoxy-4-chlorophenyl)-1,1-difluoro-3-oxopropan-2-yl)-6-(cyclopentyloxy)naphthalene-2-sulfonamide], which IC50 is on record?
Answer: The IC50 was under 1 µM.

Question: Which IC50 does the source give for `CCCCOc1cc(C(F)(F)[C@@H](NS(=O)(=O)c2ccc3cc(OC4CCCC4)ccc3c2)C(=O)N2CCC(N)CC2)ccc1Cl` [Compound 126-2, (S)—N-(3-(4-aminopiperidin-1-yl)-1-(3-butoxy-4-chlorophenyl)-1,1-difluoro-3-oxopropan-2-yl)-6-(cyclopentyloxy)naphthalene-2-sulfonamide] here?
Answer: Its IC50 is 1 to 10 µM.

Question: `CCCCOc1cc(C(F)(F)[C@H](NS(=O)(=O)c2ccc(OCC3CCCCC3)cc2)C(=O)N2CCC(N)CC2)ccc1Cl` [Compound 127-1, (R)—N-(3-(4-aminopiperidin-1-yl)-1-(3-butoxy-4-chlorophenyl)-1,1-difluoro-3-oxopropan-2-yl)-4-(cyclohexylmethoxy)benzenesulfonamide] was tested. Which IC50 did it give?
Answer: The IC50 was under 1 µM.
